Measurements reported in patent US9040565B2, “1H-benzimidazole-5-carboxamides as anti-inflammatory agents” (Orexo AB, priority 2008, dated 2015).

Target: T1, recombinant human mPGES-1 (Homo sapiens, UniProt O14684)
T1 construct: made in house; host or cells: Rosetta E. coli (microsomal/membrane fraction)
T1 sequence (O14684 1-152): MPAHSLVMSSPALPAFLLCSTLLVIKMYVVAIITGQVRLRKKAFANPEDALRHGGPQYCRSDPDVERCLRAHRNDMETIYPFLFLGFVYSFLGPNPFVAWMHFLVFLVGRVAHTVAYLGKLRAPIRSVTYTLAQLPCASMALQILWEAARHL
Assay: mPGES-1 inhibition, HTRF detection of PGE2 (Biological Test)
Type: biochemical
Method: Microsomes from Rosetta E. coli bacteria expressing recombinant human mPGES-1 is dissolved in 0.1 M KPi pH 7.4 buffer containing 2.5 mM GSH. 50 μl of the enzyme is subsequently dispensed in a 384-well plate. 0.5 μl of the inhibitor dissolved in DMSO at is thereafter added to each well and incubated for 25 minutes at room temperature.
Subsequently, 2 μl of PGH2 dissolved in an appropriate solvent is added to each well and after one minute the acidified stop solution containing FeCl2 is added. 4 μl of the total volume is transferred to a separate plate and diluted 750-fold in two separate steps before HTRF detection of PGE2.
The HTRf detection is performed by the use of a commercially available kit from CisBio essentially according to the manufacturer's protocol. Briefly, 10 μl of the diluted sample is transferred to a white 384-well plate. 5 μl of d2 and 5 μl Eu3+-Cryptate labeled anti-PGE2 is added to each well containing samples by the use of a Multidrop. The plate is covered with a plastic self-adhesive film, centrifuged at 1200 rpm for 1 minute and subsequently stored at +4° C. over night.
After over night incubation the fluorescence is measured by the use of an appropriate microplate reader. The fluorescence of europium cryptate, and d2 are measured using the following excitation and emission wavelength, europium cryptate: λmax^ex=307 nm, λmax^em=620 nm and d2: λmax^ex=620 nm, λmax^em=665 nm), respectively. The extent of the specific FRET is measured as a ratio of the emission intensity at 665 nm vs. that at 620 nm. A standard curve using synthetic PGE2 is used to quantify the amount of PGE2 in unknown samples.

SMILES	inhibition at 10 µM
O=C(Nc1ccc(Br)cc1)c1ccc2[nH]c(Nc3ccncc3Cl)nc2c1 [Example 566, N-(4-Bromophenyl)-2-(3-chloropyridin-4-ylamino)-1H-benzimidazole-5-carboxamide]	77%
CCOc1cc2[nH]c(Nc3c(Cl)cncc3Cl)nc2cc1C(=O)NCC(F)(F)C(F)(F)C(F)(F)C(F)(F)F [Example 691, 2-(3,5-Dichloropyridin-4-ylamino)-N-(2,2,3,3,4,4,5,5,5-nonafluoropentyl)-6-ethoxy-1H-benzimidazole-5-carboxamide]	97%
CCOc1cc2c(cc1C(=O)NC1CCC(C)(C)CC1)nc(Nc1c(Cl)cncc1Cl)n2C [Example 670, 2-(3,5-Dichloropyridin-4-ylamino)-N-(4,4-dimethyl-cyclohexyl)-6-ethoxy-1-methyl-1H-benzimidazole-5-carboxamide]	100%
Cn1c(Nc2c(Cl)cncc2Cl)nc2cc(C(=O)Nc3ccc(Br)cc3)c(OC3CCOC3)cc21 (stereo not drawn) [Example 661, 2-(3,5-Dichloropyridin-4-ylamino)-N-(4-bromophenyl)-6-(tetrahydrofuran-3-yl-oxy)-1-methyl-1H-benzimidazole-5-carboxamide]	100%
Cn1c(Nc2c(Cl)cncc2Cl)nc2cc(C(=O)NC3CCC(C)(C)CC3)ccc21 [Example 435, 2-(3,5-dichloropyridin-4-ylamino)-N-(4,4-dimethylcyclohexyl)-1-methyl-1H-benzimidazole-5-carboxamide]	100%

Second part, the compound after the results:

inhibition at 10 µM	SMILES
100%	O=C(Nc1ccc(Br)cc1)c1cc2nc(Nc3c(Cl)cncc3Cl)[nH]c2cc1OCC(F)(F)F [Example 676, 2-(3,5-Dichloropyridin-4-ylamino)-N-(4-bromophenyl)-6-(2,2,2-trifluoroethoxy)-1H-benzimidazole-5-carboxamide]
98%	COc1cc2[nH]c(Nc3c(Cl)cncc3Cl)nc2cc1C(=O)Nc1ccc(C2CC2)cn1 [Example 684, 2-(3,5-Dichloro-pyridin-4-ylamino)-N-(5-cyclopropyl-pyridin-2-yl)-6-methoxy-1H-benzimidazole-5-carboxamide]
99%	COCCOc1cc2[nH]c(Nc3c(Cl)cncc3Cl)nc2cc1C(=O)NCc1ncccc1C(F)(F)F [Example 686, 2-(3,5-Dichloro-pyridin-4-ylamino)-N-((3-trifluoromethyl-pyridin-2-yl)-methyl)-6-(2-methoxy-ethoxy)-1H-benzimidazole-5-carboxamide]
100%	Cn1c(Nc2c(Cl)cncc2Cl)nc2cc(C(=O)NC3CCC(C)(C)CC3)c(F)cc21 [Example 674, 2-(3,5-Dichloropyridin-4-ylamino)-N-(4,4-dimethyl-cyclohex-1-yl)-6-fluoro-1-methyl-1H-benzimidazole-5-carboxamide]
